Source: PMC11990322, “Cholinium-Based Ionic Liquids Modulate Protein Stability: A Comparative Study of Enzymes and Albumins” (Molecules, 2025)

Legend:
[1] = biological target: T1, α-chymotrypsin (Bos taurus, UniProt P00766); assay: Trp fluorescence quenching, double-log plot; assay type: binding; details: 10 mM PBS, 1 mg/mL enzyme, excitation 295 nm
T1 construct: docking model 1YPH agrees
Text: Trp fluorescence quenching, double-log plot on α-chymotrypsin

[2] = biological target: T2, lysozyme (Gallus gallus, UniProt P00698); assay: Trp fluorescence quenching, double-log plot; assay type: binding; details: 10 mM PBS, 1 mg/mL enzyme, excitation 295 nm
T2 construct: gene LYZ; docking model 6LYZ and six Trp agree
Text: Trp fluorescence quenching, double-log plot on lysozyme

T2 sequence (P00698 19-147): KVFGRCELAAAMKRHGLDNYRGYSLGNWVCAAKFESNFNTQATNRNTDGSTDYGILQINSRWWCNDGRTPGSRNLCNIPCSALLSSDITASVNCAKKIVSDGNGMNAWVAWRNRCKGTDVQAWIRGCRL

Row | Compound | Kb/M^-1 a ([1]; n = 1.19, ion-pair salt titrated as ligand) [M⁻¹] | Kb/M^-1 a ([2]; n = 1.15, ion-pair salt titrated as ligand) [M⁻¹] | Kb/M^-1 a ([1]; n = 1.40, ion-pair salt titrated as ligand, ligand perturbs the tertiary structure) [M⁻¹] | Kb/M^-1 a ([2]; n = 0.99, ion-pair salt titrated as ligand, ligand unfolds the tertiary structure) [M⁻¹]
1 | C[N+](C)(C)CCO.O=C([O-])CCC(=O)O [[Ch][Suc]] | 30.95 ± 5.69 | 31.64 ± 6.01 | – | –
2 | CC(C)[C@H](N)C(=O)O [[Ch][Val]] | – | – | 280.6 ± 30.05 | 73.84 ± 10.34
